From patent US20190211020A1 (Agency for Science, Technology and Research, priority 2012, published 2019)
Entries after “also recorded” stand apart in the source; their conditions may differ. Like-named read-outs stand apart in the source and are kept apart here.

How the values were obtained:
[1] = tested on: beta-catenin transcriptional activity; conditions: background; cited from earlier work
[2] = tested on: eIF4E Ser209 phosphorylation in Hela cells; assay: MNK cell-based assay (AlphaScreen SureFire, eIF4E Ser209 phosphorylation); conditions: Homo sapiens, read-out: IC50 Hela
Procedure, shortened: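 Hela cells (30,000/well) exposed to test compound in serum-free medium for 2 h at 37 °C, then lysed. Phospho-Ser209 eIF4E quantified by AlphaScreen SureFire; IC50 obtained by non-linear regression of signal versus log compound concentration.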

[3] = tested on: phospho-eIF4E S209 in BC-CML primary cells; assay: Immunofluorescence of phospho-eIF4E in BC-CML primary cells; assay type: cell-based, human; conditions: 48 h
Text: (§1) Cord Blood (CB) samples were purchased from the Singapore Cord Blood bank. CML samples were the Singapore General Hospital after signed informed consent under local IRB-approved procedures. MNCs were obtained using Ficoll separation, and CD34^+ cells selected by immunomagnetic beads (Miltenyi Biotech, Germany).
(§2) Cells (1×10^5) were cytospun onto glass slides, fixed with 4% paraformaldehye, and stained with mouse monoclonal antibodies against activated β-catenin (clone 8E7, Millipore, UK), or rabbit monoclonal antibodies against phospho-eIF4E S209 (EP2151Y, Abcam, UK). Slides were then stained with either PE-conjugated anti-mouse or FITC-conjugated anti-rabbit antibodies. Images were obtained with the use of a fluorescence microscope (Olympus IX71S1F3) at 40× magnification.

CD34+ BC cells = assay: Serial replating assay, CD34+ BC-CML cells; assay type: cell-based, human; conditions: for serial replating efficiency of CD34+ BC cells compared to DMSO: increasing dose, 48 hr treatment, three replatings (>8 weeks)
Text: as §1
CD34-enriched CB and BC cells were thawed and allowed to recover overnight in serum-free StemPro media (Invitrogen, Carlsbad, Calif.), supplemented with human growth factors and 1× nutrient supplement (Invitrogen). Cells were then subjected to drug treatment for 48 hr, harvested, washed, and seeded in methycellulose (H4434, […] Technologies, Canada). Colonies were enumerated after 2 weeks, individually picked, and replated in fresh methylcellulose in a 96-well format, and counted at 2 weeks. Three rounds of serial replating (representing >8 weeks in culture) were performed.

[4] = tested on: eIF4E phosphorylation in K562 cells; assay: Western blot of eIF4E phosphorylation in K562 cells; assay type: cell-based; conditions: various concentrations, 24 h
Procedure: (§3) K562 cell line was obtained from the ATCC, and grown in RPMI supplemented with 10% FCS, L-glutamine, and penicillin/streptomycin.
(§4) Exponentially growing cells were plated at 2×10^5 cells/ml, and whole cell lysate processed for western blot analysis using antibodies recognizing eIF4E, phospho-eIF4E (Cell signaling Technology),

MNK1 = biological target: T1, MNK1 (Homo sapiens, UniProt Q9BUB5); assay: In vitro MNK kinase assay (Caliper LabChip mobility shift), MNK1; assay type: biochemical; conditions: enzymatic; 1.2 mM ATP
T1 construct: recombinant kinase domains expressed in E. coli; fused on or other part: N-terminal GST tag, removed with PreScission protease before the test
T1 sequence (Q9BUB5 1-424 isoform Q9BUB5-2): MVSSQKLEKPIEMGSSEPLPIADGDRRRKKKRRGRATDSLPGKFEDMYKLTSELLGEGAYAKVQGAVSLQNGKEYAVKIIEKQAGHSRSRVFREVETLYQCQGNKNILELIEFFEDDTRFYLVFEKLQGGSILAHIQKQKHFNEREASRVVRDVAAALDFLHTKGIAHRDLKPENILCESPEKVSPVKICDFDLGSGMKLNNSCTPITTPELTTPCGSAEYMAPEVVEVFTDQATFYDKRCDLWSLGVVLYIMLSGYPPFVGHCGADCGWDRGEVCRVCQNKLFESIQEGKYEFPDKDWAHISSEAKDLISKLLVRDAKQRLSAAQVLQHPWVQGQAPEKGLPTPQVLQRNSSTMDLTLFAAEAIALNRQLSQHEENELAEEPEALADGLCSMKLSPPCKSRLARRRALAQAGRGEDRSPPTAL
Procedure: (§5) MNK1 and MNK2 inhibitor activity was determined using recombinant kinase domains expressed in E. coli. MNK1 and MNK2 were expressed as GST fusion proteins and the GST tag was removed using PreScission protease. After concentration to 10-15 mg/ml the proteins were flash frozen in liquid nitrogen and stored at −80° C.
(§6) This reaction mixture was then used immediately for the activation of the MNKs. The activation of the MNK1 was performed by incubating 5.0 μM of MNK1 with 0.3 μM of activated ERK2 and 500 μM ATP at 30° C. for 6 hours. The activation of MNK2 was performed by incubating 50 μM of MNK2 with 3.0 μM of activated ERK2 and 500 μM ATP at 30° C. for 2 hours. The activated MNKs were stored at −20° C. until required for assay.
(§7) Kinase assays were performed on the Caliper Life Sciences (Mountain View, Calif.) Microfluidics LabChip® Platform. Enzyme activity is analyzed by ‘sipping’ reactions from a microtitre plate into LabChip. The data signature is generated by the shift in mobility of non-phosphorylated peptide substrates and phosphorylated products by electrophoresis in the chip and detected by LED induced fluorescence. […] The data is analyzed by calculating the relative heights of the substrate and product peaks and the product/(product+substrate) peak ratio is reported.
(§8) The following buffers were used to assay kinase activity:
(§9) Reconstitution buffer: 10 mM HEPES/NaOH pH7.5, 0.003% Brij® L23, 0.004% TWEEN® 20.
(§10) Separation buffer: 100 mM HEPES/NaOH pH7.3, 0.02% Brij® L23, 5% DMSO, 0.1% CR3, 1 mM EDTA pH8.0.
(§11) The reaction was stopped by the addition of […] termination buffer.
(§12) Inhibition constants (IC50) were determined by plotting kinase activity versus log compound concentration and fitting with a non-linear regression algorithm using GraphPad Prism (GraphPad Software Inc.).

MNK2 = biological target: T2, MNK2 (Homo sapiens, UniProt Q9HBH9); assay: In vitro MNK kinase assay (Caliper LabChip mobility shift), MNK2; assay type: biochemical; conditions: enzymatic; 250 μM ATP
T2 construct: GST (cleaved yes); made in house; host or cells: E. coli
T2 sequence (Q9HBH9 84-388 limits assumed): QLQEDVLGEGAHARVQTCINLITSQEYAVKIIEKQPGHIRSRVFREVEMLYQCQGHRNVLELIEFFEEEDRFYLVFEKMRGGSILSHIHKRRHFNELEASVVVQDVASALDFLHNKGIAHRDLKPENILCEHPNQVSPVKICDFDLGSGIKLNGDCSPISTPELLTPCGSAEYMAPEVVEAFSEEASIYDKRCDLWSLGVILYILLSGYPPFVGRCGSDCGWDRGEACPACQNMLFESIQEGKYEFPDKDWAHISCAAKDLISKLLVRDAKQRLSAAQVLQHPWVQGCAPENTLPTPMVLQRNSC
Procedure: as §5, §6, §7, §8, §9, §10, §11, §12

[5] = tested on: D1.1 (acute T cell leukemia); assay: Cell cytotoxicity assay (CellTiter-Glo), D1.1; assay type: cell-based; conditions: T-cell, cell viability
Procedure: (§13) Cancer cell lines, MV-4-11 (leukemia), P116.c139 (acute T cell leukemia) and D1.1 (acute T cell leukemia), were purchased from ATCC and cultured according to supplier's recommendations. K562 cells (myelogenous leukemia) over-expressing eIF4E, were also used for the cytotoxicity assay. For cells treated for 48 hours, 5000 cells were seeded in 70 μl of growth medium in black, flat-bottom 96-well plate. For cells treated for six days, 1000 cells were seeded in 70 μl of growth medium in black, flat-bottom 96-well plate. […] 50 μl of the diluted compounds was added to the cells and incubated at 37° C. in 5% CO2. After 48 hours or six days treatment, cell viability was determined by CellTiter-Glo Luminescent Cell Viability Assay (Promega, Madison, Wis.). 120 μl of the reagent was added to the cells and luminescence was measured using Tecan Safire Reader. Data was analysed with Graphpad Prism software and the figures represented indicate the half maximal inhibitory concentration (IC50). Error bars denote standard deviation (SD).

BCR-ABL = biological target: T3, BCR-ABL (Homo sapiens, UniProt P00519); assay: Western blot of CrK1 phosphorylation (BCR-ABL activity) in K562 cells; assay type: cell-based
T3 construct: host or cells: K562; the other entry of the earlier key: BCR (P11274, Breakpoint cluster region protein)
T3 sequence (P00519 with tags, fused parts or gaps): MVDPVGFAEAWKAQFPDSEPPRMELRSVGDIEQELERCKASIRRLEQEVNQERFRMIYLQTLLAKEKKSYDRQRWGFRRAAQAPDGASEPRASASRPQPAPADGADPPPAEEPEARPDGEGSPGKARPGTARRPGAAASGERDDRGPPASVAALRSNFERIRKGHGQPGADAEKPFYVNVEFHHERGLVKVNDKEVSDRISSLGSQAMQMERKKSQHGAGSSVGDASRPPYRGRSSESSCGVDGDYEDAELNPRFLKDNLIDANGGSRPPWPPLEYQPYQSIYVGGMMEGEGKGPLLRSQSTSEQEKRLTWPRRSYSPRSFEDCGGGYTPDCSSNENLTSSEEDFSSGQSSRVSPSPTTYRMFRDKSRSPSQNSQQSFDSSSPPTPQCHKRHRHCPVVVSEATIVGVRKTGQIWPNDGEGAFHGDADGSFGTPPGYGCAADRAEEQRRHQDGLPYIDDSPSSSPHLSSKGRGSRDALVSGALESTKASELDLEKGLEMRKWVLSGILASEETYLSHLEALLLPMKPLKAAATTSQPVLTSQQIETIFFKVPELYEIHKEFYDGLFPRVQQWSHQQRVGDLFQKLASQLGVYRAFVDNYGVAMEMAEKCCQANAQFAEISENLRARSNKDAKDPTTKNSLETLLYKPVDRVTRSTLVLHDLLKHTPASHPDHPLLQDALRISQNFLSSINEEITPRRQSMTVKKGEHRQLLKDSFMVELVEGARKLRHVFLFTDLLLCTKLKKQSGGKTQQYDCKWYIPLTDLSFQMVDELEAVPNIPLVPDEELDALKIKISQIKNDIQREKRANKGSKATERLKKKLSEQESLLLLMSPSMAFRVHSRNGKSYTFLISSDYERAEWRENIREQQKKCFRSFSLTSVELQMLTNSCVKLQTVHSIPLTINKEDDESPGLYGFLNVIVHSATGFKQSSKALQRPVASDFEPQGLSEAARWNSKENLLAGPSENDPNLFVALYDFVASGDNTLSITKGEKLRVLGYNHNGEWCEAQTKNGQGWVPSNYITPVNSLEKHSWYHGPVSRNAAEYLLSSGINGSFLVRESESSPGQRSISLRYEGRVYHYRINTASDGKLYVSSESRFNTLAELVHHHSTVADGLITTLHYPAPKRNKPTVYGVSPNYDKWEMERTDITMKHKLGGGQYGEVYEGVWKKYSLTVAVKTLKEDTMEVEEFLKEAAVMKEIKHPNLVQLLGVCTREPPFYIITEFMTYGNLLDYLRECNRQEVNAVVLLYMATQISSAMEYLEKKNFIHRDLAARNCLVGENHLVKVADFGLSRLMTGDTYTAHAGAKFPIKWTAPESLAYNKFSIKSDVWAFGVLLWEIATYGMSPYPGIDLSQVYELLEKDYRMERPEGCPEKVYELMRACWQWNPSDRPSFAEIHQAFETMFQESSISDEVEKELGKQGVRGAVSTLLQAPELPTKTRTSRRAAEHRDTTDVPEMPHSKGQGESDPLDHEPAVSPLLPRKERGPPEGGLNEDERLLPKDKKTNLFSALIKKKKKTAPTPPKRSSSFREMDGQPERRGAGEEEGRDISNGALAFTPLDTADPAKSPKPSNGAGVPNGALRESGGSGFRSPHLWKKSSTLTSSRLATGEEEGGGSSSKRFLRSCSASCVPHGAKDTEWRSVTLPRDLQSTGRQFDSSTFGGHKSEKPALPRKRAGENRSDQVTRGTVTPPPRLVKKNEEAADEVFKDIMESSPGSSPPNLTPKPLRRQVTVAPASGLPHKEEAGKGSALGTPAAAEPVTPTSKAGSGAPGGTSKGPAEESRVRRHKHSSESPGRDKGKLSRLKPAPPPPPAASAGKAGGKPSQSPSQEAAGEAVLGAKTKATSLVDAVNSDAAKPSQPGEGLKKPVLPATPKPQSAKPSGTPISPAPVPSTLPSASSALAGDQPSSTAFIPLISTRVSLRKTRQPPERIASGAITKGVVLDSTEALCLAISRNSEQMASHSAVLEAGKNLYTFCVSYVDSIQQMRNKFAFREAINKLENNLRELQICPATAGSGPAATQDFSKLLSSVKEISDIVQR
Procedure: as §3, §4

MV-4-11 (leukemia) = assay: Cell cytotoxicity assay (CellTiter-Glo), MV-4-11; assay type: cell-based; conditions: Homo sapiens, cell viability
Procedure: as §13

[6] = tested on: MV-4-11, P116.c139 and D1.1 cell lines; assay: Cell cytotoxicity assay, the three test cell lines taken together; assay type: cell-based
Procedure: as §13

[7] = tested on: P116.c139 (acute T cell leukemia); assay: Cell cytotoxicity assay (CellTiter-Glo), P116.c139; assay type: cell-based; conditions: T-cell, cell viability
Procedure: as §13

[8] = tested on: nuclear active beta-catenin in BC-CML primary cells; assay: Immunofluorescence of nuclear active beta-catenin in BC-CML primary cells; assay type: cell-based, human
Text: as §1, §2

[9] = tested on: K562 cells (myelogenous leukemia) over-expressing eIF4E; assay: Cell cytotoxicity assay (CellTiter-Glo), K562; assay type: cell-based; conditions: for IC50: Homo sapiens, cell viability
Procedure: as §13

[10] = tested on: patient-derived BC cells in NSG mice; conditions: 40 mg/kg/d CGP or 5 mg/kg/d dasatinib for three weeks; read at 16 weeks; cited from earlier work
[11] = tested on: CD34+BC cells (including those carrying T315I mutation); conditions: background; cited from earlier work
[12] = tested on: active nuclear beta-catenin in BC GMPs; conditions: background; cited from earlier work
[13] = tested on: eIF4E phosphorylation in BC GMPs; conditions: background; cited from earlier work
[14] = eIF4E Ser209 phosphorylation, Hela cells, 2 hours

For `CC[n+]1c(/C=C/N(C)c2ccccc2)n(-c2ccccc2)c2ccc(-c3nc4ccccc4s3)cc21.[I-]` [AKT inhibitor IV], the “eIF4E-mediated increases in beta-catenin transcriptional activity” value [1] is listed as “prevented eIF4E-mediated increases in beta-catenin transcriptional activity”.

For `CN1CCN(C(=O)c2ccc(-c3cn4c(-c5ccc(O)cc5)cnc4cn3)cc2)CC1` [Example 1, (4-(3-(4-hydroxyphenyl)imidazo[1,2-a]pyrazin-6-l)phenyl)(4-methylpiperazin-1-yl)methanone], the IC50 [2, 14] was under 1000 nM, the “eIF4E phosphorylation in BC-CML primary cells, immunofluorescence” value (“eIF4E phosphorylation … immunofluorescence” below) [3] was “prevent eIF4E phosphorylation” and the “serial replating efficiency of CD34+ BC cells compared to DMSO” value (CD34+ BC cells) was “retards the serial replating efficiency”. The “eIF4E phosphorylation in K562 (BC-CML cell line), Western blot” value (“eIF4E phosphorylation in K562” below) [4] was “prevent eIF4E phosphorylation”.

For `O=C(c1ccc(-c2cn3c(-c4ccc(O)cc4)cnc3cn2)cc1)N1CCOCC1` [Example 2, (4-(3-(4-hydroxyphenyl)imidazo[1,2-a]pyrazin-6-yl)phenyl)(morpholino)methanone], the IC50 [2, 14] was under 1000 nM, the “eIF4E phosphorylation … immunofluorescence” value [3] was “prevent eIF4E phosphorylation” and the “ability of BC cells to serial replate” value (CD34+ BC cells; at 10.0 μM and 20.0 μM) was “potently impaired the ability of BC cells to serial replate”. For the same compound, the “serial replating efficiency of CD34+ BC cells compared to DMSO” value (CD34+ BC cells) was “retards serial replating efficiency” and the “eIF4E phosphorylation in K562” value [4] was “prevent eIF4E phosphorylation”.

With `CN1CCN(C(=O)c2ccc(-c3cn4c(-c5ccc(C#N)cc5)cnc4cn3)cc2)CC1` [Example 6, 4-(6-(4-(4-methylpiperazine-1-carbonyl)phenyl)imidazo[1,2-a]pyrazin-3-yl)benzonitrile] the IC50 ([2]; HeLa, 2 h) was under 1000 nM, the “eIF4E phosphorylation … immunofluorescence” value [3] was “prevent eIF4E phosphorylation” and the “eIF4E phosphorylation in K562” value [4] was “prevent eIF4E phosphorylation”.

Work on `Cc1cc(-c2cn3c(-c4ccc(C#N)cc4)cnc3cn2)ccc1C(=O)N1CCC(N)CC1` [Example 27, 4-(6-(4-(4-aminopiperidine-1-carbonyl)-3-methylphenyl)imidazo [1,2-a]pyrazin-3-yl)benzonitrile] yielded an IC50 [2, 14] of under 1000 nM, an IC50 (MNK1) of under 100 nM and an IC50 (MNK2) of under 100 nM.

Compound `CC(=O)NC1CCN(C(=O)c2ccc(-c3cn4c(-c5ccc(Cl)cc5)cnc4cn3)cc2)CC1` [Example 49] has an IC50 [2, 14] of under 1000 nM, an IC50 (MNK1) of under 1000 nM and an IC50 (MNK2) of under 1000 nM.

For `CC(=O)Nc1cc(-c2ccc3ncc(-c4ccc(C#N)cc4)n3n2)ccc1C(=O)N1CCOCC1` [Example 80, N-(5-(3-(4-cyanophenyl)imidazo[1,2-b]pyridazin-6-yl)-2-(morpholine-4-carbonyl)phenyl)acetamide], the IC50 [2, 14] was under 1000 nM, the IC50 (MNK1) was under 100 nM and the IC50 (MNK2) was under 100 nM.

`N#Cc1ccc(-c2cnc3ccc(-c4ccc(C(=O)N5CCN(c6ccncc6)CC5)cc4)cn23)cc1` [Example 125, 4-(6-(4-(4-(pyridin-4-yl)piperazine-1-carbonyl)phenyl)imidazo[1,2-a]pyridin-3-yl)benzonitrile] showed an IC50 [2, 14] of under 1000 nM, an IC50 (MNK1) of under 100 nM and an IC50 (MNK2) of under 100 nM.

With `CN1CCN(C(=O)c2ccc(-c3ccn4ncc(-c5ccc(C#N)cc5)c4n3)cc2)CC1` [Example 176, 4-(5-(4-(4-methylpiperazine-1-carbonyl)phenyl)pyrazolo[1,5-a]pyrimidin-3-yl)benzonitrile] the IC50 [2, 14] was under 1000 nM, the IC50 ([5]; 144 h, 6 days, read-out: IC50 after 6 days of treatment, D1.1) was 800 nM and the IC50 ([5]; 48 hours, read-out: IC50 after 48 hours of treatment, D1.1) was 1000 nM. The “BCR-ABL activity (phosphorylation of CrK1) in K562 cells” value (BCR-ABL) was “decrease in BCR-ABL activity”, the IC50 (MV-4-11 (leukemia); MV4-11, 144 h, 6 days, read-out: IC50 after 6 days of treatment, MV-4-11) was 400 nM and the IC50 (MV-4-11 (leukemia); MV4-11, 48 hours, read-out: IC50 after 48 hours of treatment, MV-4-11) was 1000 nM. For the same compound, the “relative cytotoxicity amongst the four compounds” value [6] was “most cytotoxic”, the IC50 ([6]; Homo sapiens, MV4-11, regardless of the treatment duration (48 hours or 6 days)) was at most 1000 nM and the IC50 ([7]; 144 h, 6 days, read-out: IC50 after 6 days of treatment, P116.c139) was 100 nM. The IC50 ([7]; 48 hours, read-out: IC50 after 48 hours of treatment, P116.c139) was 400 nM, the “nuclear active beta-catenin in BC-CML primary cells, immunofluorescence” value [8] was “decrease in nuclear beta-catenin accumulation” and the IC50 ([9]; K562, 144 h, 6 days, read-out: IC50 after 6 days of treatment, K562) was 3400 nM. The IC50 ([9]; K562, 48 hours, read-out: IC50 after 48 hours of treatment, K562) was 14200 nM, the “change of IC50 when treatment duration was extended from 48 hours to 6 days, K562” value ([9]; K562 cells over-expressing eIF4E) was “reduced by more than half” and the “eIF4E phosphorylation in K562” value [4] was “prevent eIF4E phosphorylation; also recorded: decrease in eIF4E phosphorylation”.

In the case of `Cc1nc(Nc2ncc(C(=O)Nc3c(C)cccc3Cl)s2)cc(N2CCN(CCO)CC2)n1` [dasatinib], the “serial transplantation of BC cells in NSG mice after in vivo treatment” value [10] is given as “not”, the “ability of CD34+ BC cells to serially replate for more than 8 weeks in methylcellulose” value [11] is given as “only partially impaired” and the “accumulation of active nuclear beta-catenin in BC GMPs” value [12] is given as “not”. The “eIF4E phosphorylation in BC GMPs” value [13] was “not”.

In the case of `Cc1ccc(NC(=O)c2ccc(CN3CCN(C)CC3)cc2)cc1Nc1nccc(-c2cccnc2)n1` [imatinib], the “ability of CD34+ BC cells to serially replate for more than 8 weeks in methylcellulose” value [11] is given as “only partially impaired”, the “accumulation of active nuclear beta-catenin in BC GMPs” value [12] is given as “not” and the “eIF4E phosphorylation in BC GMPs” value [13] is given as “not”.
